The CheMixHub ionic liquid set
± gives the uncertainty stated by the source.

Assay: xn = mol fraction of the nth substance listed
Conditions: 101 kPa, frequency 2 MHz

O=S(=O)([O-])C(F)(F)F.[Li+] + O=S(=O)([N-]S(=O)(=O)C(F)(F)F)C(F)(F)F.[Li+] + O
electrical conductivity [S/m]
Conditions	333 K	338.1 K	343 K	348.1 K	353 K	358.1 K
x2 = 0.001799, x1 = 0.0005943	–	1.57 ± 0.016	1.67 ± 0.017	1.77 ± 0.018	1.86 ± 0.019	1.942 ± 0.019
x2 = 0.005377, x1 = 0.001799	–	3.913 ± 0.039	4.16 ± 0.042	4.39 ± 0.044	4.601 ± 0.046	4.79 ± 0.048
x2 = 0.00893, x1 = 0.003054	–	5.77 ± 0.058	6.124 ± 0.061	6.46 ± 0.065	6.76 ± 0.068	7.029 ± 0.07
x2 = 0.01246, x1 = 0.004127	–	7.28 ± 0.073	7.725 ± 0.077	8.142 ± 0.081	8.518 ± 0.085	8.846 ± 0.088
x2 = 0.01596, x1 = 0.005377	–	8.517 ± 0.085	9.039 ± 0.09	9.522 ± 0.095	9.96 ± 0.1	10.33 ± 0.1
x2 = 0.01944, x1 = 0.006623	–	9.534 ± 0.095	10.12 ± 0.1	10.7 ± 0.11	11.13 ± 0.11	11.5 ± 0.12
x2 = 0.05129, x1 = 0.0177	–	12.8 ± 0.13	13.6 ± 0.14	14.26 ± 0.14	14.9 ± 0.15	15.41 ± 0.15
x2 = 0.08265, x1 = 0.02921	–	11.3 ± 0.11	12 ± 0.12	12.6 ± 0.13	13.18 ± 0.13	13.7 ± 0.14
x2 = 0.112, x1 = 0.04029	–	8.943 ± 0.089	9.518 ± 0.095	10.05 ± 0.1	10.5 ± 0.11	11 ± 0.11
x2 = 0.1395, x1 = 0.05129	–	6.839 ± 0.068	7.313 ± 0.073	7.76 ± 0.078	8.17 ± 0.082	8.535 ± 0.085
x2 = 0.1654, x1 = 0.06203	–	5.18 ± 0.052	5.57 ± 0.056	5.943 ± 0.059	6.29 ± 0.063	6.609 ± 0.066
x2 = 0.1898, x1 = 0.07238	–	3.921 ± 0.039	4.245 ± 0.042	4.56 ± 0.046	4.86 ± 0.049	5.128 ± 0.051
x2 = 0.2128, x1 = 0.08265	–	2.98 ± 0.03	3.244 ± 0.032	3.507 ± 0.035	3.76 ± 0.038	4 ± 0.04
x2 = 0.2345, x1 = 0.0927	–	2.26 ± 0.023	2.48 ± 0.025	2.705 ± 0.027	2.917 ± 0.029	3.118 ± 0.031
x2 = 0.2551, x1 = 0.1024	1.539 ± 0.015	1.72 ± 0.017	1.903 ± 0.019	2.08 ± 0.021	2.26 ± 0.023	2.429 ± 0.024
x2 = 0.2745, x1 = 0.112	1.16 ± 0.012	1.303 ± 0.013	1.45 ± 0.015	1.6 ± 0.016	1.744 ± 0.017	1.88 ± 0.019
